The text below walks through data of article PMC2760346 (Bioorganic & medicinal chemistry, 2009).

Experiment [1] has as its target T1, human P2Y14 receptor (Homo sapiens, UniProt Q15391).
T1 sequence (Q15391 1-338): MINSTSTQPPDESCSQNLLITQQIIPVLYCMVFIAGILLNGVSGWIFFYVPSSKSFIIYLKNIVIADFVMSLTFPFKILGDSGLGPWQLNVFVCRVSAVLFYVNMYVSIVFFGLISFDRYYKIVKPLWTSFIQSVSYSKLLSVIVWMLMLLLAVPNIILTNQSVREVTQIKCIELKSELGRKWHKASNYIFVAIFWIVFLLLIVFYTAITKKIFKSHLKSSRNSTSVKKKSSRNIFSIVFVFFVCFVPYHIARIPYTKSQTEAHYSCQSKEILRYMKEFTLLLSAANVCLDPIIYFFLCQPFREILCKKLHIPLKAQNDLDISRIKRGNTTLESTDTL
Description: Stimulation of PLC. In kind it is cell-based. The settings on record: for activation of the P2Y14 receptor, % of full activation: at 10 μM; for fold less potent than 1 at the P2Y14 receptor: relative to 1.

Another experiment concerns the target human P2Y2 receptor (Homo sapiens, UniProt P41231). The experiment is classed as cell-based. The settings on record: at concentrations up to 10 μM.
In experiment [2] the target is T1, human P2Y14 receptor. Conditions: cited from earlier work.
For another experiment, the system named is rat P2Y14 receptor. The settings on record: cited from earlier work.

Sequence of human P2Y2 receptor (P41231 whole entry): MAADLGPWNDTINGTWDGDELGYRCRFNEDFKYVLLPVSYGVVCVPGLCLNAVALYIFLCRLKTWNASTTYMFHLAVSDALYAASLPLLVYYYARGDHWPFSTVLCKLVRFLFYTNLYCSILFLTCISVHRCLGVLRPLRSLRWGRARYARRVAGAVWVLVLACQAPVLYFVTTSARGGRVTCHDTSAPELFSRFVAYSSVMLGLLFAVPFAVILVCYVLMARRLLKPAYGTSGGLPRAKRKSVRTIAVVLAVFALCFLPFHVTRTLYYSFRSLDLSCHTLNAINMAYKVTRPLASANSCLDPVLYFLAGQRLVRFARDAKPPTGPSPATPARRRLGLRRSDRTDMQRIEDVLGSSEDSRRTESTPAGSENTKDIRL

On to `CO/N=c1/ccn([C@@H]2O[C@H](COP(=O)(O)OP(=O)(O)O[C@H]3O[C@H](CO)[C@@H](O)[C@H](O)[C@H]3O)[C@@H](O)[C@H]2O)c(=O)[nH]1` [Compound 4, Diphosphoric Acid 1″-α-D-[1″]Glucopyranosyl Ester 2-((N^4-methoxy)cytidin-5′-yl)ester], for which the “agonist activity at the P2Y14 receptor” value at human P2Y14 receptor [1] is recorded as “only weakly active”.

Consider `O=c1ccn([C@@H]2C[C@H](COP(=O)(O)OP(=O)(O)O[C@H]3O[C@H](CO)[C@@H](O)[C@H](O)[C@H]3O)[C@@H](O)[C@H]2O)c(=O)[nH]1` [Compound 29, Diphosphoric Acid 1″-α-D-[1″]Glucopyranosyl Ester 2-(carbocyclic uridin-5′-yl)ester], for which the “activation of the P2Y14 receptor, % of full activation” value on human P2Y14 receptor [1] is listed as under 20%.

As to `O=c1ccn([C@@H]2O[C@H](COP(=O)(O)OP(=O)(O)OC[C@H]3O[C@H](O)C[C@@H](O)[C@@H]3O)[C@@H](O)[C@H]2O)c(=O)[nH]1` [Compound 20, Up2-[6″]2″-deoxyglucose], at human P2Y14 receptor [1], the “activation of the P2Y14 receptor, % of full activation” value is recorded as “less than 50%”.

One may read the EC50 as the concentration needed to bring the measured effect to its halfway point. For the compound `O=c1ccn([C@H]2[C@H](O)[C@H](O)[C@@]3(COP(=O)(O)OP(=O)(O)O[C@H]4O[C@H](CO)[C@@H](O)[C@H](O)[C@H]4O)C[C@H]23)c(=O)[nH]1` [Compound 28, Diphosphoric Acid 1″-α-D-[1″]Glucopyranosyl Ester 2-((N)-Methanocarba-uridin-5′-yl)ester], on human P2Y14 receptor [1], the EC50 was over 10 µM and the “agonist activity at the P2Y14 receptor” value was “abolished agonist activity”.

On to `O=c1ccn([C@@H]2O[C@H](COP(=O)(O)OP(=O)(O)O[C@H]3O[C@H](CO)[C@@H](O)[C@H](F)[C@H]3O)[C@@H](O)[C@H]2O)c(=O)[nH]1` [Compound 12, UDP-3″-F-[1″]3″-deoxy glucose], for which the “activity at the human P2Y2 receptor (activation of PLC)” value (“activity at the human P2Y2 receptor” for short) on human P2Y2 receptor was “inactive”.

Consider `O=c1ccn([C@@H]2O[C@H](COP(=O)(O)OP(=O)(O)OC[C@H]3O[C@](O)(CO)[C@@H](O)[C@@H]3O)[C@@H](O)[C@H]2O)c(=O)[nH]1` [Compound 24, Up2-[6″]fructose], for which the “activity at the human P2Y2 receptor” value at human P2Y2 receptor was “inactive”.

Regarding `O=c1ccn([C@@H]2O[C@H](COP(=O)(O)OP(=O)(O)O[C@H]3O[C@H](CO)[C@@H](F)[C@H](O)[C@H]3O)[C@@H](O)[C@H]2O)c(=O)[nH]1` [Compound 13, UDP-4″-F-[1″]4″-deoxy glucose], on human P2Y14 receptor [1], the “fold less potent than 1 at the P2Y14 receptor” value was 2 fold.

For `CC(C)(C)OC(=O)NCCNC(=O)[C@H]1O[C@H](OP(=O)(O)OP(=O)(O)OC[C@H]2O[C@@H](n3ccc(=O)[nH]c3=O)[C@H](O)[C@@H]2O)[C@H](O)[C@@H](O)[C@@H]1O` [Compound 17b, Diphosphoric Acid 1″-α-D-[1″] (Glucuronic acid-N-(2-t-butyloxycarbonylethyl amide))pyranosyl Ester 2-(uridin-5′-yl)ester], at human P2Y14 receptor [1], the “efficacy at the P2Y14 receptor” value is listed as “fully activate”.

On to `O=c1ccn([C@@H]2O[C@H](COP(=O)(O)OP(=O)(O)OC[C@H]3O[C@H](O)[C@@H](O)[C@@H]3O)[C@@H](O)[C@H]2O)c(=O)[nH]1` [Compound 22, Up2-[5″]arabinose], for which, at human P2Y14 receptor [1] (relative to 21), the “fold decrease in P2Y14 potency on inversion of the 2″-hydroxyl configuration” value is 2 fold.

`CC(=O)NCCNC(=O)[C@H]1O[C@H](OP(=O)(O)OP(=O)(O)OC[C@H]2O[C@@H](n3ccc(=O)[nH]c3=O)[C@H](O)[C@@H]2O)[C@H](O)[C@@H](O)[C@@H]1O` [Compound 17a, Diphosphoric Acid 1″-α-D-[1″](Glucuronic acid-N-(2-acetylethyl amide))pyranosyl Ester 2-(uridin-5′-yl)ester]: the “efficacy at the P2Y14 receptor” value at human P2Y14 receptor [1] is recorded as “fully activate”. Also, at human P2Y2 receptor, the “activity at the human P2Y2 receptor” value is “inactive”.

For the compound `NCCNC(=O)[C@H]1O[C@H](OP(=O)(O)OP(=O)(O)OC[C@H]2O[C@@H](n3ccc(=O)[nH]c3=O)[C@H](O)[C@@H]2O)[C@H](O)[C@@H](O)[C@@H]1O` [Compound 16, Diphosphoric Acid 1″-α-D-[1″](Glucuronic acid-N-(2-amino-ethyl amide))pyranosyl Ester 2-(uridin-5′-yl)ester], the “efficacy at the P2Y14 receptor” value on human P2Y14 receptor [1] is given as “fully activated the receptor”.

For `O=c1ccn([C@@H]2O[C@H](COP(=O)(O)OP(=O)(O)O[C@H]3O[C@H](CO)[C@@H](O)[C@H](O)[C@H]3O)[C@@H](O)[C@H]2O)c(=S)[nH]1` [Compound 2, 2-thio-UDP-[1″]glucose], on human P2Y2 receptor, the “activity at the human P2Y2 receptor” value was “inactive”. Moreover, the “fold increase in P2Y14 potency” value at human P2Y14 receptor [2] (relative to 1) was 7 fold.

For the compound `O=c1ccn([C@@H]2O[C@H](COP(=O)(O)OP(=O)(O)O[C@H]3O[C@H](CF)[C@@H](O)[C@H](O)[C@H]3O)[C@@H](O)[C@H]2O)c(=O)[nH]1` [Compound 14, UDP-6″-F-[1″]6″-deoxy glucose], the “fold less potent than 1 at the P2Y14 receptor” value on human P2Y14 receptor [1] was 3.5 fold.

Regarding `O=c1ccn([C@@H]2O[C@H](COP(=O)(O)OP(=O)(O)O[C@H]3O[C@H](CO)[C@@H](O)[C@H](O)[C@H]3F)[C@@H](O)[C@H]2O)c(=O)[nH]1` [Compound 11, UDP-2″-F-[1″]2″-deoxy glucose], the “fold less potent than 1 at the P2Y14 receptor” value at human P2Y14 receptor [1] is 9.6 fold.

For `O=c1ccn([C@@H]2O[C@H](COP(=O)(O)OP(=O)(O)O)[C@@H](O)[C@H]2O)c(=O)[nH]1` [UDP, Uridine 5′-diphosphate], the “type of activity at the human P2Y14 receptor” value on human P2Y14 receptor [2] is “partial agonist/competitive antagonist”. In addition, the “type of activity at the rat P2Y14 receptor” value in the experiment on rat P2Y14 receptor was “potent agonist”.

`O=c1ccn(C2CC(O)C(COP(=O)(O)OP(=O)(O)OC3OC(CO)C(O)C(O)C3O)O2)c(=O)[nH]1` (stereo not shown) [2′-deoxy-UDPG]: the “activity at the P2Y14 receptor” value on human P2Y14 receptor [2] was “inactive”.

For the compound `O=c1ccn([C@@]23C[C@H]2[C@H](COP(=O)(O)OP(=O)(O)O[C@H]2O[C@H](CO)[C@@H](O)[C@H](O)[C@H]2O)[C@@H](O)[C@H]3O)c(=O)[nH]1` [Compound 27, Diphosphoric Acid 1″-α-D-[1″]Glucopyranosyl Ester 2-((S)-Methanocarba-uridin-5′-yl)ester], at human P2Y14 receptor [1], the EC50 was over 10 µM and the “agonist activity at the P2Y14 receptor” value was “abolished agonist activity”.
